# Source: publication PMC8208785, “Therapeutic efficacy of novel memantine nitrate MN‐08 in animal models of Alzheimer’s disease” (Aging Cell, 2021)
# Where two headings read alike, the source gives them in different places.
# How the values were obtained:
# [1] = test system: intact narcotized rats; set-up: method as in Mirzoyan et al., 2014; conditions: intact narcotized rats and animals with global transient ischemia; ref Mirzoyan et al., 2014; cited from earlier work
# [2] = test system: NMDA receptors (NMDA‐activated current in rat hippocampal neurons); test: whole-cell patch-clamp recording of NMDA-activated current in primary hippocampal neurons; assay type: cell-based
# [3] = test system: APP/PS1 mice; test: Western blotting and NeuN staining in hippocampi of APP/PS1 mice (Tau, synapse and apoptosis proteins); assay type: in vivo; conditions: MN‐08 6 mg/kg
# Experimental: APP/PS1 transgenic mice were purchased from Jackson Laboratory and reproduced in the Shenzhen Center for Disease Control and Prevention (Shenzhen, China). Two‐month‐old APP/PS1 mice were divided into four groups: (1) APP/PS1 + Vehicle group; (2) APP/PS1 + MN‐08 (6 mg/kg) group; (3) APP/PS1 + Memantine (Mem, 5 mg/kg) group; (4) APP/PS1 + Donepezil (Done, 1.3 mg/kg, once daily) group; (5) Two‐month‐old C57BL/6J mice as a control group. The APP/PS1 mice were administered drugs twice a day (Done, once daily) by gastric gavage from ages 2 to 8 months for 6 months successively. Control and vehicle groups received equal volumes of saline.
# Immunohistochemistry and immunofluorescence staining were carried out as previously described (Zhang et al., 2017). Coronal brain sections were incubated with […] sodium citrate (pH 6.0) and heated for 15 min. After cooling to room temperature, the sections were immersed in 3 % H2O2 for 10 min followed by blocking solution (10 % fetal bovine serum, 1 % bovine serum albumin and 0.1 % Triton X-100) for 1 h. Sections were then incubated with the following appropriate primary antibodies overnight at 4°C: anti-Aβ1-42 antibody (#ab10148, 1:1000, Abcam), anti-Aβ1-16 antibody (#803014, 1:1000, Abcam) and anti-NeuN antibody (#ab177487, 1:400, Abcam). After rinsing 3 times, the sections of immunohistochemistry staining were incubated with biotin-conjugated universal secondary antibody (Gene Tech, Shanghai, China). For immunofluorescence staining, the sections were incubated with appropriate secondary antibodies for 2 h at room temperature. Image J software was used to analyze the fluorescence intensity and cell counting from six slices at similar coronal positions of each animal; this was performed by a viewer blinded to the experimental group.
# Western blotting analysis was performed as previously described with minor modifications (Huang, Li, & Nan, 2017). Proteins were extracted from hippocampal tissue and their concentrations determined by the BCA protein assay kit (Fdbio science, Hangzhou, China). The protein (20 μg) was separated on a 12% SDS-PAGE gel and then transferred to PVDF membranes. The membranes were blocked using 5 % nonfat dry milk for 2 h. The protein blots were incubated with the corresponding primary antibodies against p-Akt (#4060, 1:1000, Cell Signaling Technology), Akt (#4685, 1:1000, Cell Signaling Technology), BACE1 (#5606, 1:1000, Cell Signaling Technology), PS1 (#5643, 1:1000, Cell Signaling Technology), p-GSK3β (#5558, 1:1000, Cell Signaling Technology), GSK3β (#12456, 1:1000, Cell Signaling Technology), Bcl-2 (#3498, 1:1000, Cell Signaling Technology), Bax (#5023, 1:1000, Cell Signaling Technology), Cleaved caspase-3 (#9661, 1:1000, Cell Signaling Technology), Caspase-3 (#9662, 1:1000, Cell Signaling Technology), ADAM10 (#14194, 1:1000, Cell Signaling Technology), APP (#ab241592, 1:1000, Abcam), sAPPα (#ab126723, 1:1000, Abcam), NEP (#ab216341, 1:1000, Abcam), Synapsin I (#ab64581, 1:1000, Abcam), Synapsin II (#ab76494, 1:1000, Abcam), NR2A (#ab124913, 1:2000, Abcam), PSD95 (#ab18258, 1:1000, Abcam), Synaptophysin (#ab32127, 1:1000, Abcam), IDE (#ab133561, 1:1000, Abcam), Drebin (#ab178408, 1:1000, Abcam) and Tau-5 (#ab80579, 1:2000, Abcam) overnight at 4°C. After washing 3 times, the membranes were incubated with the respective HRP-conjugated secondary antibody. […] Quantitative analysis of protein bands was conducted by the Carestream system (Carestream Health, Inc, USA).
# [4] = pharmacokinetic analysis of MN-08 in rats; assay type: in vivo; conditions: both sexes, rat, plasma, po; for Cmax: read-out: Cmax, peak concentration; for half-life: read-out: T1/2, mean terminal half-life (converted); for Tmax: read-out: Tmax, mean time to peak
# Experimental: Healthy adult rats were cannulated under anesthesia one day before dosing, then randomly categorized into 3 groups (3 males and 3 females for each group): (1) MN-08 (3 mg/kg) group; (2) MN-08 (12 mg/kg) group; (3) MN-08 (24 mg/kg) group. Following single administration of MN-08 by gastric gavage, plasma samples (approximately 150 μL) were collected at different time points (Pre-dose and 0.25, 0.5, 1, 2, 4, 8, 12, 24 h after dose). The blood samples were placed in heparinized tubes and centrifuged at 3000 rpm for 10 min. The supernatant plasma was stored at -80°C until analysis. The concentration of MN-08 in blood samples was analyzed by the LC-MS/MS method as previously described (Tian et al., 2016).
# [5] = brain exposure of MN-08 in rats; assay type: in vivo, SD rats; conditions: for concentration at 0.5 h / concentration at 1 h / concentration at 24 h: both sexes, Sprague-Dawley, rat, oral
# Experimental: Bio-distribution studies were carried out in healthy adult rats (3 males and 3 females). All rats were administered MN-08 at a single dose of 12 mg/kg by gastric gavage. Brain and plasma were collected at 0.5, 1 and 24 h post dosing. Tissue samples were homogenized and then centrifuged at 12000 rpm for 10 min. The supernatants were injected into the LC-MS/MS system for analysis of MN-08 concentration according to the method previously described (Tian et al., 2016).
# [6] = single intragastric dose 3 mg/kg
# [7] = single intragastric dose 12 mg/kg
# [8] = single intragastric dose 24 mg/kg
structure (smiles),measurement,setting,value
"CC12CC3CC(C)(C1)CC(N)(C3)C2 [memantine, 1‐amino‐3,5‐dimethyladamantane]",local cerebral blood flow (CBF) in the brain cortices,[1],reduce
CCC12CC3CC(N)(C1)CC(CO[N+](=O)[O-])(C3)C2 (stereo not drawn) [MN‐08],IC50 on NMDA‐mediated current compared with memantine,[2],slightly high than memantine
same,NMDA‐activated current,"[2]; MN‐08 1–30 µM, whole‐cell patch‐clamp",inhibited
same,NMDA‐activated current after washout of the compound (off‐rate),"[2]; NMDA 30 µM, −50 mV",recovered rapidly
same,IC50,"[2]; holding potential −50 mV, NMDA 30 μM, rat hippocampal neurons, read-out: IC50 on the inhibition of NMDA‐mediated current",7.32 ± 0.23 µM
same,Tau hyperphosphorylation in the hippocampi,[3]; prevention study,consistently suppressed
same,"expression of synapse‐related proteins (SYP, PSD95, SYN I, SYN II, drebrin)",[3]; prevention study,reversal of the depressed expression
same,neuronal loss in the hippocampus (NeuN),[3]; prevention study,prevented
same,expression ratio of Bcl‐2/Bax,[3]; hippocampi,upregulating
same,expression ratio of cleaved Caspase‐3 to Caspase‐3,[3]; hippocampi,downregulating
same,Cmax,[4]; [6],97.5 ng/mL
same,half-life,[4]; [6],5.26 h
same,Tmax,[4]; [6],1.08 h
same,Cmax,[4]; [7],399 ng/mL
same,half-life,[4]; [7],6.81 h
same,Tmax,[4]; [7],1.83 h
same,Cmax,[4]; [8],674 ng/mL
same,half-life,[4]; [8],6.82 h
same,Tmax,[4]; [8],4 h
same,concentration in brain tissue relative to plasma,[5],much higher than that in the plasma
same,blood‐brain barrier penetration,[5]; 12 mg/kg gastric gavage,readily penetrates the blood‐brain barrier
same,mean concentration in brain,"[5]; 12 mg/kg gastric gavage, 0.5 h, 12 mg/kg",5793 ± 1033 ng/g
same,mean concentration in brain,"[5]; 12 mg/kg gastric gavage, 1 h, 12 mg/kg",10952 ± 3236 ng/g
same,mean concentration in brain,"[5]; 12 mg/kg gastric gavage, 24 h, 12 mg/kg",1661 ± 183.4 ng/g
same,concentration at 0.5 h,"[5]; brain, 12 mg/kg gastric gavage, 0.5 h, read-out: mean concentration in brain",5790 ng/g
same,concentration at 1 h,"[5]; brain, 12 mg/kg gastric gavage, 1 h, read-out: mean concentration in brain",11000 ng/g
same,concentration at 24 h,"[5]; brain, 12 mg/kg gastric gavage, 24 h, read-out: mean concentration in brain",1660 ng/g
same,concentration at 0.5 h,"[5]; 12 mg/kg, 0.5 h, assuming 1 g brain tissue is 1 ml, read-out: concentration in the brain",~19.9 µM
same,concentration at 1 h,"[5]; 12 mg/kg, 1 h, assuming 1 g brain tissue is 1 ml, read-out: concentration in the brain",~37.7 µM
same,concentration at 24 h,"[5]; 12 mg/kg, 24 h, assuming 1 g brain tissue is 1 ml, read-out: concentration in the brain",~5.71 µM
same,concentration at 0.5 h,"[5]; plasma, 12 mg/kg gastric gavage, 0.5 h, read-out: mean concentration in plasma",781 ± 99 ng/mL
same,concentration at 1 h,"[5]; plasma, 12 mg/kg gastric gavage, 1 h, read-out: mean concentration in plasma",726 ± 141 ng/mL
same,concentration at 24 h,"[5]; plasma, 12 mg/kg gastric gavage, 24 h, read-out: mean concentration in plasma",73.4 ± 23.8 ng/mL
